Values quoted from earlier work as cited in paper PMC12042267, “Expanding the Family of Monosubstituted 15-Membered Pyridine-Based Macrocyclic Ligands for Mn(II) Complexation in the Context of MRI” (Inorganic Chemistry, 2025).
Read-outs that look alike come from different tables or passages of the source.

Key:
[1] = cited from earlier work
[2] = Ca(II), cited from earlier work
[3] = cited from earlier work; for log KML / log KML(OH) / log KHML: Mn(II)
[4] = Zn(II), cited from earlier work
[5] = Cu(II), cited from earlier work
[6] = Mn(II) complex, cited from earlier work; for dissociation half-life t1/2: calculated for pH 7.4
[7] = Mn(II) complex, cited from earlier work; for dissociation half-life t1/2: calculated for pH 7.4; remark: listed apart in the source
[8] = 298 K and 0.47 T ref 21; cited from earlier work
[9] = cited from earlier work; remark: listed apart in the source
[10] = 0.15 NaCl and 2 mM concentration ref 21, 58; cited from earlier work

## O=C(O)CN1CCOCCN(CC(=O)O)Cc2cccc(n2)C1 [3,9-OPC2A]
[1]; I = 0.15 M NaCl, 25 °C ref 26
  log K1^H: 7.73
  log K2^H: 7.66
  log K3^H: 2.13
[2]; I = 0.15 M NaCl, 25 °C ref 26
  log KML: 8.27
[3]; I = 0.15 M NaCl, 25 °C ref 26
  log KML: 13.03
  log KML(OH): -11.49
[3]; pH 7.4, cMn = clig = 10^–5 M ref 26
  pMn: 8.69
[4]; I = 0.15 M NaCl, 25 °C ref 26
  log KHML: 2.08
  log KML: 14.81
  log KML(OH): -10.95
[5]; I = 0.15 M NaCl, 25 °C ref 26
  log KHML: 1.92
  log KML: 18.41
  log KML(OH): -10.50
[6]; Cu(II) transmetalation ref 26
  k0: (8.6 ± 1.1) × 10^–6 s^–1
  k1: 2.81 ± 0.07 M^–1 s^–1
[6]; Cu(II) ref 26
  dissociation half-life t1/2: 21.9 h

## O=C(O)CN1CCNCCN(CC(=O)O)Cc2cccc(n2)C1 [3,9-PC2A]
[1]; 0.1 M KCl ref 42
  log K1^H: 12.50
  log K2^H: 5.75
  log K3^H: 3.28
  log K4^H: 2.38
[1]; I = 0.15 M NaCl, 25 °C ref 21
  log K1^H: 12.25
  log K2^H: 5.97
  log K3^H: 3.47
  log K4^H: 1.99
[2]; I = 0.15 M NaCl, 25 °C ref 21
  log KHML: 5.08
  log KML: 9.92
[3]; I = 0.15 M NaCl, 25 °C ref 21
  log KML: 17.09
[3]; I = 0.15 M NaCl, 25 °C, log KMnHL in Table 5 ref 21
  log KHML: 2.14
[3]; pH 7.4, cMn = clig = 10^–5 M ref 21
  pMn: 8.64
[4]; I = 0.15 M NaCl, 25 °C ref 21
  log KHML: 2.74
  log KML: 19.49
[5]; I = 0.15 M NaCl, 25 °C ref 21
  log KHML: 2.12
  log KML: 23.58
[6]; Cu(II) transmetalation ref 21
  k1: 221 ± 5 M^–1 s^–1
  k3: (3.6 ± 0.7) × 10^–2 M^–1 s^–1
[6]; Cu(II) ref 21
  dissociation half-life t1/2: 21.0 h

## c1cc2nc(c1)CNCCNCCNCCNC2 [15-pyN5]
[1]; 0.1 M NMe4Cl ref 28
  log K1^H: 9.40
  log K2^H: 8.54
  log K3^H: 5.28
[1]; 0.1 NaClO4 ref 40
  log K1^H: 9.43
  log K2^H: 8.80
  log K3^H: 5.28
[1]; 0.1 NaClO4 ref 41
  log K1^H: 9.11
  log K2^H: 8.82
  log K3^H: 5.27
[2]; 0.1 M NMe4Cl ref 28
  log KML: 2.97
[3]; 0.1 M NMe4Cl ref 28
  log KML: 10.89
  log KML(OH): -11.52
[3]; 0.1 M NMe4Cl, log KMnHL in Table 5 ref 28
  log KHML: 4.27
[3]; 0.1 M NaClO4 ref 40
  log KHML: 4.20
  log KML: 11.64
[3]; 0.1 M NaClO4 ref 41
  log KHML: 4.51
  log KML: 11.12
[3]; pH 7.4, cMn = clig = 10^–5 M ref 28
  pMn: 6.37
[3]; pH 7.4, cMn = clig = 10^–5 M ref 40
  pMn: 6.60
[3]; pH 7.4, cMn = clig = 10^–5 M ref 41
  pMn: 6.59
[4]; 0.1 M NMe4Cl ref 28
  log KHML: 2.45
  log KML: 16.27
  log KML(OH): -11.18
[5]; 0.1 M NMe4Cl ref 28
  log KML: 21.84
  log KML(OH): -12.30
[7]; Zn(II) transmetalation ref 28
  k1: 423 M^–1 s^–1
  k2: 1.0 × 10^7 M^–2 s^–1
  k4: 1.7 × 10^4 M^–2 s^–1
[7]; Zn(II) ref 28
  dissociation half-life t1/2: 11.0 h

## O=C(O)CN1CCOCCOCCNCc2cccc(n2)C1 [L1]
[1]; I = 0.15 M NaCl, 25 °C ref 30
  log K1^H: 8.86
  log K2^H: 8.03
  log K3^H: 1.9
[2]; I = 0.15 M NaCl, 25 °C ref 30
  log KHML: 6.37
  log KML: 5.51
[3]; I = 0.15 M NaCl, 25 °C ref 30
  log KML: 11.06
[3]; I = 0.15 M NaCl, 25 °C, log KMnHL in Table 5 ref 30
  log KHML: 3.82
[3]; pH 7.4, cMn = clig = 10^–5 M ref 30
  pMn: 6.95
[4]; I = 0.15 M NaCl, 25 °C ref 30
  log KHML: 2.80
  log KML: 13.12
[5]; I = 0.15 M NaCl, 25 °C ref 30
  log KHML: 2.67
  log KML: 15.86
  log KML(OH): -9.7
[7]; Zn(II) transmetalation ref 30
  k0: (4.1 ± 0.3) × 10^–3 s^–1
  k1: 1691 ± 41 M^–1 s^–1
[7]; Zn(II) ref 30
  dissociation half-life t1/2: 0.0467 h

## O.O=C([O-])CN1CCNCc2cccc(n2)CN(CC(=O)[O-])CC1.[Mn+2] [Mn(3,6-PC2A)]
[8]
  r1p298: 2.72 mM^–1 s^–1
[9]
  kex^298: 14.0 ± 2.5 10^7 s^–1
  ΔH^‡: 38.2 ± 3.9 kJ mol^–1
[10]
  Eox: +862 mV

## O.O=C([O-])CN1CCNCCN(CC(=O)[O-])Cc2cccc(n2)C1.[Mn+2] [Mn(3,9-PC2A)]
[8]
  r1p298: 2.91 mM^–1 s^–1
[9]
  kex^298: 12.6 ± 1.2 10^7 s^–1
  ΔH^‡: 37.5 ± 2.4 kJ mol^–1
[10]
  Eox: +838 mV

## O=C(O)CN1CCNCc2cccc(n2)CNCC1 [PC1A]
[1]; 0.1 M NMe4Cl ref 20
  log K1^H: 10.47
  log K2^H: 8.71
  log K3^H: 2.79
[2]; 0.1 M NMe4Cl ref 20
  log KHML: 7.39
  log KML: 6.04
[3]; 0.1 M NMe4Cl ref 20
  log KML: 11.54
[3]; 0.1 M NMe4Cl, log KMnHL in Table 5 ref 20
  log KHML: 4.95
[3]; pH 7.4, cMn = clig = 10^–5 M ref 20
  pMn: 8.10
[4]; 0.1 M NMe4Cl ref 20
  log KHML: 3.03
  log KML: 17.01
[5]; 0.1 M NMe4Cl ref 20
  log KHML: 2.09
  log KML: 18.62
[7]; Zn(II) transmetalation ref 20
  k1: 2020 ± 40 M^–1 s^–1
  k2: (8.0 ± 0.3) × 10^7 M^–2 s^–1
[7]; Zn(II) ref 20
  dissociation half-life t1/2: 2.4 h

## O=C(O)CN1CCN(Cc2ccc(-c3ccccc3)cc2)CCN(CC(=O)O)Cc2cccc(n2)C1 [PC2A-BP]
[1]; I = 0.15 M NaCl, 25 °C ref 23
  log K1^H: 10.45
  log K2^H: 6.93
  log K3^H: 2.36
  log K4^H: 1.64
[2]; I = 0.15 M NaCl, 25 °C ref 23
  log KML: 7.94
[3]; I = 0.15 M NaCl, 25 °C ref 23
  log KML: 14.86
[3]; pH 7.4, cMn = clig = 10^–5 M ref 23
  pMn: 8.35
[4]; I = 0.15 M NaCl, 25 °C ref 23
  log KHML: 1.71
  log KML: 18.05
[5]; I = 0.15 M NaCl, 25 °C ref 23
  log KHML: 1.04
  log KML: 22.30
[6]; Cu(II) transmetalation ref 23
  k1: 16.9 ± 0.2 M^–1 s^–1
[6]; Cu(II) ref 23
  dissociation half-life t1/2: 286.2 h

## Mn(EDTA)
[10]
  Eox: +769 mV
